Patent US9517265B2, “Methods for the prevention and/or treatment of memory impairment” (The Governing Council of the University of Toronto, priority 2010, dated 2016)
Entries after “also recorded” stand apart in the source; their conditions may differ. Where two headings read alike, the source gives them in different places.

Legend:
[1] = cited from earlier work
Elevated plus maze = type: in vivo, mice
Excerpt: Anxiety levels were studied using an elevated plus maze consisting of an acrylic glass apparatus in the shape of a cross (45 cm long×7 cm wide, with a central region of 7 cm×7 cm). Two opposing arms were enclosed with opaque white plastic walls (28 cm high, closed arms), whereas the other two opposing arms were left open (open arms). […] An observer blinded to treatment group recorded the position of each mouse on the maze using Observer software. The time spent in the center and in the open and closed arms were measured over 5 min. In addition, motor activity was quantified to study locomotion.

α5GABAA receptors [2] = target: T1, α5GABAA receptors (Mus musculus, UniProt P22723+Q8BHJ7); experiment: Fear conditioning (contextual and cued) after isoflurane anesthesia; type: in vivo, C57BL6/J mice; parameters: from tissue; host or cells: brain of living mice (behavioural tests); conditions: for freezing score to context, short-term memory: tested 30 min after training; for freezing score to auditory tone, short-term memory: tested 90 min after conditioning; for freezing score to auditory tone, long-term memory / freezing score to context, long-term memory: tested 2 days after conditioning; for effect on memory deficit after isoflurane (in words): L-655,708 given before isoflurane
Procedure: To prevent hypothermia during anesthesia, the floor of the chamber was warmed with a heating blanket. […] The mouse was then either returned to its home cage and allowed to recover for 24 h (24-h groups) or taken to a holding cage in an adjacent room (1-h groups). For continuity and to ensure that the experimenter who performed the fear-conditioning studies was blinded to the treatment group, mice that were allowed to recover for 24 h were placed back in a heated for 45 min before the behavioral experiments. FIGS. 1A and 1B summarize the time course of the experimental procedures. In FIG. 1A, each stage of the experimental paradigm is represented by chronological boxes and cartoons. Relative time is indicated below the boxes (t=0, start of fear conditioning training). The duration of each stage is inset at the bottom left. […] Four groups of isoflurane-treated subjects were used (1 h recovery+L-655,708; 1 h recovery+vehicle; 24 h recovery+L-655,708; 24 h recovery+vehicle). Two oxygen-control group was used (1 h recovery+L-655,708; 1 h recovery+vehicle). 10 min prior to fear conditioning, subjects were examined in the elevated plus maze (EPM). Subjects were tested for short-term memory (STM) and long-term memory (LTM) of the context and tone.
Testing of memory function was performed using two fear-conditioning paradigms. These tests study the ability of mice to learn and remember an association between an aversive stimulus (foot shock) and non-aversive or neutral stimuli (environmental context or an auditory cue). […] Each mouse was introduced to the fear conditioning chamber (50 cm wide×15 cm deep×15 cm high, Process Control Fear Conditioning Monitor GmbH 303410, Technical & Scientific Equipment Systems Inc., Chesterfield, Mo.). The chamber was illuminated with an interior overhead light (50 lx) and was equipped with a stainless steel grid floor connected to a constant-current shock generator. Each mouse was allowed to explore the chamber for 3 min before presentation of a pulsating tone (80 dB, 3600 Hz) which persisted for 30 s. The tone was followed immediately by a mild foot shock (0.7 mA for 0.5 s). The mouse was allowed to explore the chamber for a further 30 s after the shock to study post-shock freezing.
Freezing was scored using Observer software (Noldus Information Technology, Wagoningen, The Netherlands), by an experimenter who was blinded to the treatment groups. Before each new training session, the chamber was cleaned with 70% ethanol to mask and eliminate odors from the previous mouse.
Short-term memory for contextual learning was probed 30 min after training by re-exposed the mice to the same fear conditioning chamber for […]. Long-term memory for contextual learning was studied 2 days (48 h) after conditioning by re-exposing the mice to the conditioning chamber. Short-term memory for cued learning was determined 90 min after training by first allowing the mice to explore a modified chamber scented with 5% acetic acid and containing a plastic floor and cardboard walls and then after 3 min, re-presenting the tone (2-Hz pulsating tone, 80 dB, 3600 Hz) for 3 min. Non-specific freezing was measured during the exploration of the novel chamber prior to presenting the tone. Freezing scores to study recall were measured during presentation of the tone. Long-term memory for cued learning was determined by introducing the mice into the modified chamber and presenting the tone 2 days (48 h) after conditioning.

α5GABAA receptors [3] = target: T1, α5GABAA receptors; conditions: for effect of the anesthetic on recognition memory, wild-type mice (in words) / memory performance of Gabra5−/− mice (in words): 24 h after anesthesia
[4] = Tail-clamp withdrawal assay (MAC of isoflurane) and recovery of righting reflex; type: in vivo, mice; conditions: for time to self-right after the immobilizing dose of isoflurane: L-655,708 or vehicle pretreatment, n=9; for immobilizing dose (MAC value) of isoflurane: tail-clamp, mice pretreated with L-655,708 0.7 mg/kg s.c. (row L-655,708) or vehicle (row isoflurane), n=17
Procedure: The MAC value was calculated as the mean value of these two concentrations.

α5GABAARs = α5GABAARs (Mus musculus, UniProt P22723+Q8BHJ7); conditions: WT mice, cited from earlier work
α5GABAA receptors [5] = experiment: In vivo receptor occupancy of L-655,708 (literature); conditions: 0.7 mg/kg intraperitoneal, 30 min after injection
[6] = 1 h Iso, vehicle (row isoflurane) or L-655,708
[7] = 24 h Iso, vehicle (row isoflurane) or L-655,708
[8] = trained 1 h after isoflurane (1 MAC, 1 h), L-655,708 0.7 mg/kg s.c. or vehicle 10 min before isoflurane
[9] = trained 24 h after isoflurane, L-655,708 0.7 mg/kg s.c. or vehicle before isoflurane
[10] = high-dose experiment: isoflurane + vehicle injection (row isoflurane) or + L-655,708 0.7 mg/kg 30 min before training

T1 sequence (Q8BHJ7 32-463 limits assumed): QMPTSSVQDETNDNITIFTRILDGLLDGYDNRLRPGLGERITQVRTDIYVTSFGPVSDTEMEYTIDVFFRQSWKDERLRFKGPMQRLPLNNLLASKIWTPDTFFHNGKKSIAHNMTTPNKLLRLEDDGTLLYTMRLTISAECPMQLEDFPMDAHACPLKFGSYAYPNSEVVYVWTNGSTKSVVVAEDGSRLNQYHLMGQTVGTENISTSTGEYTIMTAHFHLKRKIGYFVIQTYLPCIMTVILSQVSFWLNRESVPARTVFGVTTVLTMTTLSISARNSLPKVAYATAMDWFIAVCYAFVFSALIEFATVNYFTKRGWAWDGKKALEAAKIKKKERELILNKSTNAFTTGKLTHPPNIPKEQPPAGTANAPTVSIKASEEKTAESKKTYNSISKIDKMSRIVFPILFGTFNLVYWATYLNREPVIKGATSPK
T1 sequence (P63080 26-473 partner): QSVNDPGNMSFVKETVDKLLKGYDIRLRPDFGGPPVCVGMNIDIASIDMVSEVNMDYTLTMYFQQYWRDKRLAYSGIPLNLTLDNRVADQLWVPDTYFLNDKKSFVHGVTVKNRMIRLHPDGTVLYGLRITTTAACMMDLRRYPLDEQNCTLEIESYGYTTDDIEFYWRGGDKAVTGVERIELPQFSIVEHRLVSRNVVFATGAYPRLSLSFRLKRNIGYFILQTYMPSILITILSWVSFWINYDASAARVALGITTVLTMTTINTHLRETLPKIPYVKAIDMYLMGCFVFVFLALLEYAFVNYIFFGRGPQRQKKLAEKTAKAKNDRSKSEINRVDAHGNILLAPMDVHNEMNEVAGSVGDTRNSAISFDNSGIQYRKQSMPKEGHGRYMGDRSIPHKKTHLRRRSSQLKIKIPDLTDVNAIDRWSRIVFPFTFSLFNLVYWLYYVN
T1 sequence (P22723 39-474): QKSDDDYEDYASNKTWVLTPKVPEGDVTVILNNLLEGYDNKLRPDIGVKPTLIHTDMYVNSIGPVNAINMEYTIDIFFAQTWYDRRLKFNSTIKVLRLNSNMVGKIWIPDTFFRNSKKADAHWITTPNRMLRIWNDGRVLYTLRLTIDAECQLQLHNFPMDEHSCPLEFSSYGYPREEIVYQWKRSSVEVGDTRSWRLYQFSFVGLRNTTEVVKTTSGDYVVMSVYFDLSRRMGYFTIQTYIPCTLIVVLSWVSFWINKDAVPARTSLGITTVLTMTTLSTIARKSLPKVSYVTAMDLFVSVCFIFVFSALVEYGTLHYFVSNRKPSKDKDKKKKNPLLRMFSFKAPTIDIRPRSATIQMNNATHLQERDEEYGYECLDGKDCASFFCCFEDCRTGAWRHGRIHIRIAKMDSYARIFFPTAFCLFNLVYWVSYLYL
α5GABAARs, sequence (Q8BHJ7 32-463 limits assumed): as the sequence (Q8BHJ7 32-463 limits assumed) above
α5GABAARs, sequence (P63080 26-473 partner): as the sequence (P63080 26-473 partner) above
α5GABAARs, sequence (P22723 39-474): as the sequence (P22723 39-474) above

SMILES: FC(F)OC(Cl)C(F)(F)F (stereo not drawn) [isoflurane]
- concentration required to impair the freezing response ([1]; administered during contextual fear learning): 0.6%
- concentration required for memory blockade during anesthesia ([1]; rat, in vivo): 0.4%
- threshold concentration that impaired memory performance during fear conditioning ([1]; rats): 0.2%
- total number of visits to the middle area (Elevated plus maze; [6]): 19.9±4.6
- total number of visits to the middle area (Elevated plus maze; [7]): 18.1±5.3
- anxiety in the elevated plus maze (in words) (Elevated plus maze; mouse, in vivo): neither isoflurane, nor L-655,708 had any effect on anxiety on their own
- mean freezing score, short-term contextual fear conditioning (α5GABAA receptors [2]; independent cohort of 14 mice, 24 h after isoflurane): 32.8%
- freezing score to context, short-term memory (α5GABAA receptors [2]; [8]): 54.6±5.9%
- freezing score to context, short-term memory (α5GABAA receptors [2]; [9]): 51.6±8.0%
- freezing score to auditory tone, short-term memory (α5GABAA receptors [2]; trained 1 h after isoflurane): 35.7±6.43%
- freezing score to auditory tone, short-term memory (α5GABAA receptors [2]; trained 24 h after isoflurane): 49.1+8.8%
- freezing score to auditory tone, long-term memory (α5GABAA receptors [2]; trained 1 h after isoflurane): 21.8±23.1%
- freezing score to context, long-term memory (α5GABAA receptors [2]; trained 1 h after isoflurane): 36.4±26.9%
- freezing score to auditory tone, long-term memory (α5GABAA receptors [2]; trained 24 h after isoflurane): 41.2±31.2%
- freezing score to context, long-term memory (α5GABAA receptors [2]; trained 24 h after isoflurane): 48.9±8.6%
- effect of the anesthetic on recognition memory, wild-type mice (in words) (α5GABAA receptors [3]): failed to recognize the familiar object and exhibited no preference for the novel object
- memory performance of Gabra5−/− mice (in words) (α5GABAA receptors [3]): did not cause significant impairment of memory performance in Gabra5−/− mice
- effect of the anesthetic on recognition memory, wild-type mice (in words) (α5GABAA receptors [3]; listed as Isoflurane): demonstrated normal working memory
- time spent exploring both objects during training (α5GABAA receptors [3]; 72 h after isoflurane): 46.65 ± 6.57 s
- discrimination ratio, short-term memory (α5GABAA receptors [3]; 72 h after isoflurane, n=10): 0.60±0.04
- discrimination ratio, short-term memory (α5GABAA receptors [3]; Gabra5−/− mice, 24 h after isoflurane): 0.62±0.05
- time by which short-term memory deficits resolved (α5GABAA receptors [3]; after isoflurane 1.3% 1 h): ≤ 72 h
- discrimination ratio, short-term memory (α5GABAA receptors [3]; [10]): 0.54±0.04
- discrimination ratio, short-term memory (α5GABAA receptors [3]; prevention experiment, wild-type, isoflurane + vehicle injection, n=11): 0.53±0.05
- time spent exploring sample objects during training (α5GABAA receptors [3]; short-term memory experiment, 24 h after isoflurane): 62.3 ± 9.44 s
- discrimination ratio, working memory (α5GABAA receptors [3]; tested 1 min after training, 24 h after isoflurane 1.3% 1 h, n=10): 0.67±0.04
- discrimination ratio, short-term memory (α5GABAA receptors [3]; tested 1 h after training, 24 h after isoflurane, vehicle injection, wild-type, n=31): 0.51±0.03
- time spent exploring both sample objects during training (α5GABAA receptors [3]; working memory experiment, 24 h after isoflurane): 49.28 ± 9.60 s
- time to self-right after the immobilizing dose of isoflurane [4]: 153 ± 26 s
- immobilizing dose (MAC value) of isoflurane [4]: 1.33±0.02

SMILES: CCOC(=O)c1ncn2c1[C@@H]1CCCN1C(=O)c1cc(OC)ccc1-2 [L-655,708]
- trace fear memory, freezing scores (in words) (α5GABAARs; L-655,708 1 mg/kg i.p. 30 minutes prior to training): demonstrated increased freezing scores
- contextual fear memory, freezing score (in words) (α5GABAARs; etomidate or etomidate plus L-655,708 30 min prior to training): prevented the etomidate-induced memory deficit
- total number of visits to the middle area (Elevated plus maze; [6]): 17.3±7.0
- total number of visits to the middle area (Elevated plus maze; 1 h O2): 19.5±8.5
- total number of visits to the middle area (Elevated plus maze; [7]): 13.6±7.1
- effect on memory deficit after isoflurane (in words) (α5GABAA receptors [2]): completely prevented memory deficits; also recorded: completely reversed the short-term memory deficit for contextual learning; also recorded: prevented the short-term memory deficit to the tone in mice trained 1 h after isoflurane; also recorded: had no effect on auditory recall in mice conditioned 24 h after exposure to isoflurane; also recorded: completely reversed by pretreatment with L-655,708; also recorded: did not reverse the long-term deficit in cued fear conditioning; also recorded: The impairment was prevented by pre-emptive treatment with L-655,708
- effect on memory deficit after isoflurane (in words) (α5GABAA receptors [2]; listed as L-655-708): had no effect on freezing in the oxygen-treated mice
- freezing score to context, short-term memory (α5GABAA receptors [2]; oxygen-treated mice): 80.1±6.4%
- freezing score to context, short-term memory (α5GABAA receptors [2]; [8]): 75.5±8.6%
- freezing score to context, short-term memory (α5GABAA receptors [2]; [9]): 81.9±5.6%
- freezing score to auditory tone, short-term memory (α5GABAA receptors [2]; trained 1 h after isoflurane): 49.1+8.8%
- freezing score to auditory tone, long-term memory (α5GABAA receptors [2]; trained 1 h after isoflurane): 41.7±7.3%
- freezing score to context, long-term memory (α5GABAA receptors [2]; trained 1 h after isoflurane): 72.3±4.9%
- freezing score to context, long-term memory (α5GABAA receptors [2]; trained 24 h after isoflurane): 75.2±8.3%
- estimated occupancy of α5GABAA receptors in vivo (α5GABAA receptors [5]): 60-70%
- memory performance of Gabra5−/− mice (in words) (α5GABAA receptors [3]): did not affect the memory performance of Gabra5−/− mice
- discrimination ratio, short-term memory (α5GABAA receptors [3]; Gabra5−/− mice, L-655,708 0.70 mg/kg i.p. 10 min before isoflurane): 0.62±0.05
- discrimination ratio, short-term memory (α5GABAA receptors [3]; Gabra5−/− mice, L-655,708 0.70 mg/kg i.p. 10 min before vehicle gas): 0.64±0.05
- effect on isoflurane-induced recognition memory deficit (in words) (α5GABAA receptors [3]; L-655,708 0.35 mg/kg 24 h after isoflurane, 30 min before training): restored normal memory performance in groups that were exposed to isoflurane; also recorded: fully reversed short-term memory deficits; also recorded: completely reversed the deficit in recognition memory; also recorded: reverses memory deficits when administered 24 h after exposure to the anesthetic isoflurane; also recorded: fully reversed by L-655,708
- effect on isoflurane-induced recognition memory deficit (in words) (α5GABAA receptors [3]; L-655,708 0.7 mg/kg 24 h after isoflurane, 30 min before training): failed to reverse the memory deficit in isoflurane-treated mice
- prevention of recognition memory deficit (in words) (α5GABAA receptors [3]; L-655,708 0.7 mg/kg before isoflurane): preferred the novel object
- discrimination ratio, short-term memory (α5GABAA receptors [3]; [10]): 0.54±0.05
- discrimination ratio, short-term memory (α5GABAA receptors [3]; isoflurane + L-655,708 0.35 mg/kg i.p. 23.5 h after anesthesia, 30 min before training, n=11): 0.68±0.03
- exploratory behavior during training (in words) (α5GABAA receptors [3]; mouse, in vivo): did not influence the amount of time that mice spent with both objects
- time to self-right after the immobilizing dose of isoflurane [4]: 151 ± 27 s
- effect on MAC of isoflurane (in words) ([4]; mouse, in vivo): did not change the MAC value for isoflurane
- immobilizing dose (MAC value) of isoflurane [4]: 1.33±0.02
